Biological target: Keap1 (Homo sapiens (Human), UniProt Q14145)
Assay: HEK293 ARE luciferase assay
Format: cell-based
Conditions: HEK-293 ARE firefly luciferase transiently transfected cells; 18 h incubation; mean of 1 to 20 individual measurements
Method in brief: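 Keap1 inhibition read as Nrf2-driven luciferase rise: compounds dosed in 10 points up to 100 μM (0.3% DMSO) on HEK-293 ARE luciferase cells, 10,000/well, 18 h at 37 °C, then SteadyGlo luminescence. Scaled between DMSO vehicle and 30 μM tBHQ; values average 1-20 runs.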

Chain of Keap1 (Q14145 whole entry): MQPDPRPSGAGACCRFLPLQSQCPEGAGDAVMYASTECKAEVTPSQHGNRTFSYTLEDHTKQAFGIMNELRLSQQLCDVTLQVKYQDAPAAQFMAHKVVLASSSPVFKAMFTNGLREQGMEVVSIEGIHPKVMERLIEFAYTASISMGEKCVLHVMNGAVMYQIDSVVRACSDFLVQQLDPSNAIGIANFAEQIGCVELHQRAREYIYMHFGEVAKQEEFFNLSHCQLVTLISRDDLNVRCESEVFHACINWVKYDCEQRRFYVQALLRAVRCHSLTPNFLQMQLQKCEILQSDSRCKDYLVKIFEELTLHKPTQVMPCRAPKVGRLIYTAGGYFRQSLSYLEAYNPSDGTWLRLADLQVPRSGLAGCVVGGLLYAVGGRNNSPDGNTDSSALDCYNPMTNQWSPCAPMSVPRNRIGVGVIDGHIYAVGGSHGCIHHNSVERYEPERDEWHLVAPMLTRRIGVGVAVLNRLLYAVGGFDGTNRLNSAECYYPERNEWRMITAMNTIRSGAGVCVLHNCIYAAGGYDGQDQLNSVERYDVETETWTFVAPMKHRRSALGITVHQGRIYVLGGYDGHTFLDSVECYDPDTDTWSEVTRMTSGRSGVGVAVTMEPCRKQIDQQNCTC

Row | Structure (SMILES) | EC50
1 | COC1(c2ncc(F)cc2C(F)(F)F)C=C(C#N)C(=O)C(C)(C)C1 (centres unmarked) [Compound 151, 3-[5-fluoro-3-(trifluoromethyl)pyridin-2-yl]-3-methoxy-5,5-dimethyl-6-oxocyclohex-1-ene-1-carbonitrile] | 34 nM
2 | CO[C@]1(c2ncc(C)s2)C=C(C#N)C(=O)C(C)(C)C1 [Compound 40, (S)-3-methoxy-5,5-dimethyl-3-(5-methylthiazol-2-yl)-6-oxocyclohex-1-enecarbonitrile] | 38 nM
3 | COC1(c2ccc(F)cn2)C=C(C#N)C(=O)C2(CCCC2)C1 (centres unmarked) [Compound 240, 9-(5-fluropyridin-2-yl)-9-methoxy-6-oxospiro[4.5]dec-7-ene-7-carbonitrile] | 838 nM
4 | COC1(c2cccnc2Br)C=C(C#N)C(=O)C(C)(C)C1 (centres unmarked) [Compound 21, 3-(2-bromo-3-pyridyl)-3-methoxy-5,5-dimethyl-6-oxo-cyclohexene-1-carbonitrile] | 452 nM
5 | COC1(c2cccc(C(F)(F)F)n2)C=C(C#N)C(=O)C(C)(C)C1 (centres unmarked) [Compound 20, 3-methoxy-5,5-dimethyl-6-oxo-3-[6-(trifluoromethyl)-2-pyridyl]cyclo-hexene-1-carbonitrile] | 126 nM
6 | COC1(c2ncc(F)cc2-c2cnn(C3CC3)c2)C=C(C#N)C(=O)C(C)(C)C1 (centres unmarked) [Compound 166, 3-[3-(1-cyclopropyl-1H-pyrazol-4-yl)-5-fluoropyridin-2-yl]-3-methoxy-5,5-dimethyl-6-oxocyclohex-1-ene-1-carbonitrile] | 14 nM
7 | COC1(c2nc(C)c(Br)s2)C=C(C#N)C(=O)C(C)(C)C1 (centres unmarked) [Compound 154, 3-(5-bromo-4-methyl-1,3-thiazol-2-yl)-3-methoxy-5,5-dimethyl-6-oxocyclohex-1-ene-1-carbonitrile] | 53 nM
8 | COC1(c2ncc(F)cc2-c2ccnc(C)c2C)C=C(C#N)C(=O)C(C)(C)C1 (single isomer, unassigned) [Compound 82, 3-[3-(2,3-dimethyl-4-pyridyl)-5-fluoro-2-pyridyl]-3-methoxy-5,5-dimethyl-6-oxo-cyclohexene-1-carbonitrile] | 52 nM
9 | COC1(c2ncc(F)cc2-c2ccc(F)cc2)C=C(C#N)C(=O)C(C)(C)C1 (single isomer, unassigned) [Compound 70, 3-[5-fluoro-3-(4-fluorophenyl)pyridin-2-yl]-3-methoxy-5,5-dimethyl-6-oxocyclohex-1-ene-1-carbonitrile] | 15 nM
10 | CO[C@]1(c2ncc(F)cc2-c2ccns2)C=C(C#N)C(=O)C(C)(C)C1 [Compound 80, (S)-3-(5-fluoro-3-isothiazol-5-yl-2-pyridyl)-3-methoxy-5,5-dimethyl-6-oxo-cyclohexene-1-carbonitrile] | 2 nM
11 | COC1(c2cncc(C)n2)C=C(C#N)C(=O)C2(CC2)C1 (single isomer, unassigned) [Compound 54, 7-methoxy-7-(6-methylpyrazin-2-yl)-4-oxospiro[2.5]oct-5-ene-5-carbonitrile] | 363 nM
12 | COc1ccccc1-c1cccc(C2(OC)C=C(C#N)C(=O)C(C)(C)C2)n1 (centres unmarked) [Compound 119, 3-methoxy-3-[6-(2-methoxyphenyl)pyridin-2-yl]-5,5-dimethyl-6-oxocyclohex-1-ene-1-carbonitrile] | 141 nM
13 | CCc1cncc(-c2cc(F)cnc2C2(OC)C=C(C#N)C(=O)C(C)(C)C2)c1 (single isomer, unassigned) [Compound 233, 3-(5′-ethyl-5-fluoro[3,3′-bipyridin]-2-yl)-3-methoxy-5,5-dimethyl-6-oxocyclohex-1-ene-1-carbonitrile] | 6 nM
14 | COC1(c2cc(-c3cnn(C)c3)ccn2)C=C(C#N)C(=O)C(C)(C)C1 (centres unmarked) [Compound 112, 3-methoxy-5,5-dimethyl-3-[4-(1-methyl-1H-pyrazol-4-yl)pyridin-2-yl]-6-oxocyclohex-1-ene-1-carbonitrile] | 371 nM
15 | COC1(c2ncccc2OC(F)(F)F)C=C(C#N)C(=O)C(C)(C)C1 (single isomer, unassigned) [Compound 41, 3-methoxy-5,5-dimethyl-6-oxo-3-(3-(trifluoromethoxy)py-ridin-2-yl)cyclohex-1-enecarbonitrile] | 11 nM
16 | COC1(c2cccc(Br)n2)C=C(C#N)C(=O)C(C)(C)C1 (centres unmarked) [Compound 2, 3-(6-bromo-2-pyridyl)-3-methoxy-5,5-dimethyl-6-oxo-cyclohexene-1-carbonitrile] | 228 nM
17 | COC1(c2ncc(F)cn2)C=C(C#N)C(=O)C(C)(C)C1 (single isomer, unassigned) [Compound 216, 3-(5-fluoropyrimidin-2-yl)-3-methoxy-5,5-dimethyl-6-oxocyclohex-1-ene-1-carbonitrile] | 21 nM
18 | COC1(c2ncc(F)cc2Br)C=C(C#N)C(=O)C(C)(C)C1 (single isomer, unassigned) [Compound 48, 3-(3-bromo-5-fluoropyridin-2-yl)-3-methoxy-5,5-dimethyl-6-oxocyclohex-1-enecarbonitrile] | 6 nM

Row | Structure (SMILES) | EC50
19 | COC1(c2ncccc2C(F)(F)F)C=C(C#N)C(=O)C(C)(C)C1 (centres unmarked) [Compound 122, 3-methoxy-5,5-dimethyl-6-oxo-3-[3-(trifluoromethyl)pyridin-2-yl]cyclohex-1-ene-1-carbonitrile] | 43 nM
20 | [2H]C([2H])([2H])OC1(c2cccc(-c3cnn(C)c3)n2)C=C(C#N)C(=O)C(C)(C)C1 (single isomer, unassigned) [Compound 14, 5,5-Dimethyl-3-[6-(1-methylpyrazol-4-yl)-2-pyridyl]-6-oxo-3-(trideuterio-methoxy)cyclohexene-1-carbonitrile] | 12 nM
21 | COC1(c2ncc(F)cc2C)C=C(C#N)C(=O)C2(CCCC2)C1 (centres unmarked) [Compound 153, 9-(5-fluoro-3-methylpyridin-2-yl)-9-methoxy-6-oxospiro[4.5]dec-7-ene-7-carbonitrile] | 7090 nM
22 | COC1(c2ccc(Cl)cn2)C=C(C#N)C(=O)C(C)(C)C1 (single isomer, unassigned) [Compound 32, 3-(5-chloropyridin-2-yl)-3-methoxy-5,5-dimethyl-6-oxocyclohex-1-enecarbonitrile] | 55 nM
23 | COC1(c2ncc(F)cc2-c2sc(C)nc2C)C=C(C#N)C(=O)C(C)(C)C1 (single isomer, unassigned) [Compound 93, 3-[3-(2,4-dimethylthiazol-5-yl)-5-fluoro-2-pyridyl]-3-methoxy-5,5-dimethyl-6-oxo-cyclohexene-1-carbonitrile] | 5 nM
24 | COC1(c2ncc(F)cc2-c2c(C)nn(C)c2C)C=C(C#N)C(=O)C(C)(C)C1 (single isomer, unassigned) [Compound 92, 3-[5-fluoro-3-(1,3,5-trimethylpyrazol-4-yl)-2-pyridyl]-3-methoxy-5,5-dimethyl-6-oxo-cyclohexene-1-carbonitrile] | 67 nM
25 | COC1(c2ncc(F)cc2OC(F)F)C=C(C#N)C(=O)C(C)(C)C1 (single isomer, unassigned) [Compound 47, 3-(3-(difluoromethoxy)-5-fluoropyridin-2-yl)-3-methoxy-5,5-dimethyl-6-oxocyclohex-1-enecarbonitrile] | 8 nM
26 | COC1(c2ncc(F)cc2-c2ccc(=O)n(C)c2)C=C(C#N)C(=O)C(C)(C)C1 (centres unmarked) [Compound 167, 3-(5-fluoro-1′-methyl-6′-oxo[1′,6′-dihydro[3,3′-bipyridine]]-2-yl)-3-methoxy-5,5-dimethyl-6-oxocyclohex-1-ene-1-carbonitrile] | 18 nM
27 | COC1(c2ncc(Cl)cc2C(F)F)C=C(C#N)C(=O)C(C)(C)C1 (centres unmarked) [Compound 158, 3-[5-chloro-3-(difluoromethyl)pyridin-2-yl]-3-methoxy-5,5-dimethyl-6-oxocyclohex-1-ene-1-carbonitrile] | 21 nM
28 | COC1(c2cccc(-c3cncnc3)n2)C=C(C#N)C(=O)C(C)(C)C1 (centres unmarked) [Compound 117, 3-methoxy-5,5-dimethyl-6-oxo-3-[6-(pyrimidin-5-yl)pyridin-2-yl]cyclohex-1-ene-1-carbonitrile] | 34 nM
29 | CO[C@]1(c2ncccc2C(F)F)C=C(C#N)C(=O)C2(CC2)C1 [Compound 55, (S)-7-[3-(difluoromethyl)pyridin-2-yl]-7-methoxy-4-oxospiro[2.5]oct-5-ene-5-carbonitrile] | 14 nM
30 | COC1(c2ncc(F)cc2F)C=C(C#N)C(=O)C(C)(C)C1 (centres unmarked) [Compound 28, 3-(3,5-difluoropyridin-2-yl)-3-methoxy-5,5-dimethyl-6-oxocyclohex-1-enecarbonitrile] | 36 nM
31 | COC1(c2ccc(C)cn2)C=C(C#N)C(=O)C(C)(C)C1 (centres unmarked) [Compound 239, 3-methoxy-5,5-dimethyl-3-(5-methylpyridin-2-yl)-6-oxocyclohex-1-ene-1-carbonitrile] | 50 nM
32 | COC1(c2ncc(F)cc2F)C=C(C#N)C(=O)C(C)(C)C1 (single isomer, unassigned) [Compound 44, 3-(3,5-difluoropyridin-2-yl)-3-methoxy-5,5-dimethyl-6-oxocyclohex-1-enecarbonitrile] | 37 nM
33 | COC1(c2ccccc2C(F)(F)F)C=C(C#N)C(=O)C(C)(C)C1 (centres unmarked) [Compound 19, 3-methoxy-5,5-dimethyl-6-oxo-3-[2-(trifluoromethyl)phenyl]cyclohexene-1-carbonitrile] | 1240 nM
34 | COC1(c2ncc(F)cc2-c2ccnc(C(F)(F)F)c2)C=C(C#N)C(=O)C(C)(C)C1 (single isomer, unassigned) [Compound 236, 3-[5-fluoro-2′-(trifluoromethyl)[3,4′-bipyridin]-2-yl]-3-methoxy-5,5-dimethyl-6-oxocyclohex-1-ene-1-carbonitrile] | 17 nM
35 | COC1(c2ncc(F)cc2-c2ccc3ncnn3c2)C=C(C#N)C(=O)C(C)(C)C1 (single isomer, unassigned) [Compound 212, 3-[5-fluoro-3-([1,2,4]triazolo[1,5-a]pyridin-6-yl)pyridin-2-yl]-3-methoxy-5,5-dimethyl-6-oxocyclohex-1-ene-1-carbonitrile] | 7 nM
